Among the test systems are 786-0; A498; A549; CAKI-1; CCRF-CEM; COLO 205; EKVX; HCT-116; HOP-92; OVCAR-3; SF-295; SK-MEL-28; SNB-19; SNB-75; SR; U-251.
Common to all, as to assay: NCI-60 cell line screen, 48 h

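Dose response: 5 concentrations. Exposure: 48 h. Format: 96-well plates. Endpoint: linear interpolation; highest concentration if not reached. At the GI50, growth is halved.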 Calls of active or inactive are those of the source. Cut-off read from the data, not from the text of the source: active = GI50 up to about 1.1 µM and inactive = higher.

The results in this text go back to ChEMBL document CHEMBL1201862, “PubChem BioAssay data set” (2004).

Turning to `Cc1c(Cl)cccc1NC(=O)C(=O)C1C(=O)CC(C)(C)CC1=O`, the GI50 in the test on 786-0, in the test on A498, with A549, in the test on CAKI-1, in the test on CCRF-CEM and with COLO 205 was > 100 µM (inactive) each time. For the same compound, the GI50 with EKVX, in the test on HCT-116, in the test on HOP-92, in the test on OVCAR-3, in the test with SF-295 and with SK-MEL-28 was > 100 µM (inactive) in each case. Also, the GI50 in the test on SNB-19, in the test with SNB-75, in the test on SR and in the test with U-251 was > 100 µM (inactive) each time.

For the compound `O=C(C(=O)c1cc2ccccc2[nH]1)c1cc2ccccc2[nH]1`, the GI50 with 786-0 was > 284 µM (inactive); in the test on A498, > 347 µM (inactive); in the test on A549, > 347 µM (inactive); in the test with CAKI-1, 234 µM (inactive); with CCRF-CEM, > 247 µM (inactive); in the test on COLO 205 it was > 347 µM (inactive). Moreover, the GI50 in the test on EKVX was > 347 µM (inactive); in the test with HCT-116, 98.6 µM (inactive); in the test with HOP-92 it was > 127 µM (inactive); in the test with OVCAR-3, 12.8 µM (inactive); in the test with SF-295, > 347 µM (inactive); with SK-MEL-28 it was 149 µM (inactive). Moreover, the GI50 was > 347 µM (inactive) with SNB-19, > 347 µM (inactive) in the test on SNB-75, 12.3 µM (inactive) with SR and > 347 µM (inactive) in the test on U-251.

In the case of `O=c1[nH]c(=O)n(C2OC(CO)C(O)C2O)cc1OCc1ccccc1` (configuration not stated), the GI50 is > 100 µM (inactive) with 786-0; > 100 µM (inactive) in the test with A498; > 87.3 µM (inactive) with A549; > 100 µM (inactive) with CAKI-1; > 60.5 µM (inactive) in the test with CCRF-CEM; > 64.7 µM (inactive) in the test on COLO 205. The GI50 with EKVX was > 100 µM (inactive); in the test with HCT-116, > 63.4 µM (inactive); with HOP-92, > 100 µM (inactive); with OVCAR-3, > 100 µM (inactive); in the test with SF-295, > 100 µM (inactive); in the test on SK-MEL-28 it was > 100 µM (inactive). The GI50 is > 100 µM (inactive) with SNB-19, > 100 µM (inactive) in the test on SNB-75, > 50.1 µM (inactive) in the test on SR and > 58.2 µM (inactive) in the test on U-251.

In the case of `Cn1cnc2nc(Cl)nc(NC(C)(C)C(C)(C)O)c21`, the GI50 in the test with 786-0, in the test on A498, with A549, in the test on CAKI-1, in the test with CCRF-CEM and in the test with COLO 205 was > 100 µM (inactive) in each case. The GI50 with EKVX, in the test on HCT-116, in the test on HOP-92, in the test on OVCAR-3, in the test on SF-295 and in the test with SNB-19 was > 100 µM (inactive) in each case. Also, the GI50 in the test with SNB-75, with SR and with U-251 was > 100 µM (inactive) each time.

Turning to `N#CC(/C(=N/NC(=N)N)C(=O)Nc1ccccc1[N+](=O)[O-])c1nc(-c2ccc([N+](=O)[O-])cc2)cs1` (configuration not stated), the GI50 with 786-0, with A498, in the test with A549, with CAKI-1, in the test on CCRF-CEM and in the test with COLO 205 was > 100 µM (inactive) throughout. The GI50 with EKVX, in the test on HCT-116, with OVCAR-3, with SF-295, in the test with SK-MEL-28 and in the test on SNB-19 was > 100 µM (inactive) in each case. The GI50 in the test on SNB-75, in the test on SR and in the test on U-251 was > 100 µM (inactive) throughout.

As to `COc1ccc(C2=Nc3ccccc3N=C(SC)C2)cc1`, the GI50 with 786-0 is 38.6 µM (inactive); in the test with A498 it was > 100 µM (inactive); with A549, 95.1 µM (inactive); in the test with CAKI-1, 46.8 µM (inactive); with CCRF-CEM, 13.2 µM (inactive); in the test on COLO 205 it was 51.3 µM (inactive). Also, the GI50 is 41 µM (inactive) in the test on EKVX; 50.4 µM (inactive) in the test on HCT-116; 15.6 µM (inactive) in the test with HOP-92; 54.1 µM (inactive) in the test on OVCAR-3; 77.3 µM (inactive) with SF-295; > 100 µM (inactive) in the test with SK-MEL-28. Also, the GI50 is > 100 µM (inactive) in the test on SNB-19, 74 µM (inactive) in the test on SNB-75, 25.3 µM (inactive) in the test with SR and 32.2 µM (inactive) in the test with U-251.

`O=C1Nc2ccccc2N/C1=C\C(=O)c1ccccc1O`: the GI50 in the test with 786-0, with A498, in the test on A549, with CAKI-1, in the test on CCRF-CEM and in the test with COLO 205 was > 100 µM (inactive) throughout. The GI50 with EKVX, with HCT-116, with HOP-92, in the test with OVCAR-3, in the test on SF-295 and in the test on SK-MEL-28 was > 100 µM (inactive) in each case. The GI50 in the test with SNB-19, in the test on SNB-75, in the test with SR and with U-251 was > 100 µM (inactive) in each case.

As to `COc1cc2c(cc1OC)CC(=O)Nc1cc(OC)c(OC)cc1CC2`, the GI50 in the test on 786-0 is 49.2 µM (inactive); with A498, 44.5 µM (inactive); with A549, 63 µM (inactive); in the test with CAKI-1, 68.2 µM (inactive); in the test on CCRF-CEM, 51.2 µM (inactive); in the test on COLO 205, 38.2 µM (inactive). Also, the GI50 is > 100 µM (inactive) in the test with EKVX; 49 µM (inactive) in the test with HCT-116; > 80.9 µM (inactive) in the test on HOP-92; 43.9 µM (inactive) with OVCAR-3; 30.3 µM (inactive) in the test on SF-295; > 78.3 µM (inactive) in the test on SK-MEL-28. In addition, the GI50 in the test with SNB-19 is 99.8 µM (inactive); in the test on SNB-75 it was > 59.2 µM (inactive); in the test on SR, 5.74 µM (inactive); in the test on U-251, 54.7 µM (inactive).

As to `CCCCCCCCC(O)C#CC(N)=O` (configuration not stated), the GI50 in the test with 786-0 was 12.7 µM (inactive); in the test on A498 it was 16.4 µM (inactive); in the test on A549, 14.7 µM (inactive); in the test with CAKI-1, 8.67 µM (inactive); in the test with CCRF-CEM, 15.5 µM (inactive); with EKVX it was 11.4 µM (inactive). The GI50 with HCT-116 is 3.67 µM (inactive); in the test with HOP-92, 10.5 µM (inactive); in the test on OVCAR-3, 7.35 µM (inactive); in the test on SF-295, 39 µM (inactive); with SK-MEL-28, 15.5 µM (inactive); with SNB-19 it was 11.8 µM (inactive). Further, the GI50 in the test with SNB-75 is 3.37 µM (inactive); with SR it was 12.9 µM (inactive); in the test on U-251 it was 8.34 µM (inactive).

`CC(=O)Nc1ccc(S(=O)(=O)N/N=C/CN2C(=O)c3ccccc3C2=O)cc1`: the GI50 in the test on 786-0, in the test on A498, in the test on A549, with CAKI-1, with CCRF-CEM and in the test with COLO 205 was > 100 µM (inactive) in each case. In addition, the GI50 with EKVX, in the test with HCT-116, in the test on SF-295, in the test with SNB-19, with SNB-75 and with SR was > 100 µM (inactive) each time. The GI50 with U-251 was > 100 µM (inactive).

Take `COc1ccc(CN[C@H]2CCc3cc(OC)c(OC)c(OC)c3-c3ccc(SC)c(=O)cc32)c(OC)c1OC`: the GI50 is 0.037 µM (active) in the test on 786-0; 0.0296 µM (active) with A498; 0.0459 µM (active) with A549; 0.0452 µM (active) in the test on CAKI-1; 0.0356 µM (active) in the test with CCRF-CEM; 0.0234 µM (active) with COLO 205. Besides, the GI50 in the test on EKVX is 0.0237 µM (active); in the test on HCT-116 it was 0.0229 µM (active); in the test with HOP-92, 0.0681 µM (active); with OVCAR-3, 0.0235 µM (active); with SF-295, 0.0296 µM (active); in the test on SK-MEL-28, 0.0443 µM (active). Besides, the GI50 was 0.0658 µM (active) with SNB-19, 0.0184 µM (active) with SNB-75, 0.0167 µM (active) in the test on SR and 0.0194 µM (active) in the test with U-251.

Regarding `CC(C)=CC1C[C@H](C2CC=C3C2(C)CCC2[C@@]3(C)C(=O)CC3[C@]2(C)C=CC(=O)[C@]3(C)CO)CO1` (some centres not stated), the GI50 is 5.96 µM (inactive) with 786-0; 8.81 µM (inactive) in the test with A498; 20.8 µM (inactive) in the test with A549; 23.9 µM (inactive) in the test with CAKI-1; 2.96 µM (inactive) with CCRF-CEM; 14 µM (inactive) with COLO 205. Besides, the GI50 with EKVX is 26.2 µM (inactive); in the test on HCT-116, 3.37 µM (inactive); in the test with HOP-92 it was 16.6 µM (inactive); in the test on OVCAR-3, 4.84 µM (inactive); in the test with SF-295 it was 13 µM (inactive); with SK-MEL-28, 5.2 µM (inactive). For the same compound, the GI50 with SNB-19 is 19 µM (inactive); with SNB-75 it was 8.04 µM (inactive); with SR, 3.02 µM (inactive); in the test with U-251, 8.83 µM (inactive).

As for `O=C1NC2(CCCCCC2)C2CCCCCCC12O` (configuration not stated), the GI50 with 786-0, in the test with A498, in the test on A549, in the test on CAKI-1, with CCRF-CEM and in the test with COLO 205 was > 100 µM (inactive) each time. In addition, the GI50 in the test on EKVX, with HCT-116, in the test with HOP-92, in the test with OVCAR-3, in the test on SF-295 and in the test on SK-MEL-28 was > 100 µM (inactive) in each case. For the same compound, the GI50 in the test on SNB-19, with SNB-75, in the test with SR and with U-251 was > 100 µM (inactive) in each case.
